Molecular target: T1, micrococcal nuclease (Staphylococcus aureus, UniProt P00644)
T1 construct: purchased Sigma N5386
Assay: inactivation of micrococcal nuclease by EGTA, read out in the real time T7 DNA amplification reaction
Format: biochemical
Details: 2 mM EGTA added after incubation with 1 mM CaCl2
Text: Micrococcal nuclease is obtained from Sigma (Sigma catalog number N5386 from Staphylococcus aureus, Foggi strain; 100-300 units/mg). EGTA, Ethylene glycol-bis(2-aminoethyl ether)-N,N,N′,N′-tetraacetic acid, is used as the micrococcal inactivating-agent and is obtained from Sigma (Sigma catalog number E8145. Tetrasodium salt). […]
DNA was quantitated by its ability to stimulate a real time DNA amplification reaction based on the T7 replication system, as described in PCT number WO 00/41524, published Jul. […] In this assay, the time required for the synthesized DNA to reach a designated threshold fluorescence value is proportional to the log of the input concentration of DNA over more than a 10,000,000-fold range of DNA concentration.

O=C(O)CN(CCOCCOCCN(CC(=O)O)CC(=O)O)CC(=O)O [EGTA, Ethylene glycol-bis(2-aminoethyl ether)-N,N,N′,N′-tetraacetic acid]
effect of EGTA on micrococcal nuclease activity: inactivated

Reference: patent publication US20020172972A1, “Use of a selectively inactivatable enzyme to digest contaminating nucleic acid” (President and Fellows of Harvard College, priority 2001, published 2002)
